Assay results from patent publication US7700644B2, “Isoflavonoid dimers” (Novogen Research Pty Ltd, priority 2005, dated 2010).

Legend:
[1] = tested on: Neonatal foreskin fibroblasts (NFF); test: Normal cell toxicity, MTT proliferation assay, NFF; format: cell-based, human
Protocol: Neonatal foreskin fibroblasts (NFF) were a gift from Dr. Peter Parsons (Queensland Institute of Medical Research). RK-13 (rabbit kidney) cells were obtained from Miller Whalley (Macquarie University). Both cell types were cultured in RPMI supplemented with 10% FCS (CSL, Australia), penicillin (100 U/ml), streptomycin ([…]), L-glutamine (2 mM) and sodium bicarbonate (1.2 g/L), and cultured at 37° C. in a humidified atmosphere of 5% CO2.
(§1) IC50 values were determined for each cell line. Cells were seeded in 96-well plates at an appropriate cell density as determined from growth kinetics analysis. NFFs were cultured for 5 days and RK-13s for 24 hrs in the absence and presence of the test compounds. Cell proliferation was assessed after the addition of 20 μl of 3-4,5 dimethylthiazol-2,5-diphenyl tetrazolium bromide (MTT, 2.5 mg/ml in PBS, Sigma) for 3-4 hrs at 37° C. according to manufacturer's instructions. IC50 values were calculated from semi-log plots of % of control proliferation on the y-axis against log dose on the x-axis.
Duplicate cytotoxicity assays against NFF cells were conducted with dehydroequol (DHE), 4,9-dihydroxy-14,15-dimethoxy-12a-(3′,4′-dimethoxyphenyl)-3,10-dimethyl-2,11-dioxa-(1H,12H)-6b,6c,12a,16b-tetrahydronaphtho[1,2-g]chrysene (2) from Example 6.1 and cisplatin.

thoracic aorta = test: Aortic ring contractility induced by noradrenaline; set-up: species or system Male Sprague-Dawley rats; details: in presence of Cpd. 2 1 μg/ml; 1.94±0.35 vs. 2.09±0.23, p>0.05, no effect; n=6 rings
Protocol: Male Sprague-Dawley rats (250±50 g) were euthanased with 80% CO2 and 20% O2. The thoracic aorta was excised and quickly mounted in organ-baths as described (Chin-Dusting et al, 2001). Full concentration-contractile curves were obtained to noradrenaline ([…]) in the absence and presence of Cpd. 2 (1 μg/ml). Experiments were repeated in n=6 different rings from 6 different animals.

A2780 (Ovarian) = test: In vitro cytotoxicity, MTT proliferation assay, A2780; format: cell-based, human; details: Homo sapiens
Protocol: (§2) The human pancreatic cancer cell line, HPAC (CRL-2119) was routinely cultured in 1:1 mixture DMEM (Sigma) plus Ham's F12 (Sigma) medium containing HEPES (15 mM), insulin (0.002 mg/ml), transferrin (0.005 mg/ml), hydrocortisone, (40 ng/ml), epidermal growth factor (10 ng/ml). The ovarian cancer cell line CP70 was obtained as a gift from Dr. Gil Mor (Yale University) and cultured in a 1:1 mixture DMEM plus Ham's F12 medium, and SKOV-3 was purchased from ATCC and cultured in McCoy's 5a medium. The breast cancer cell line MDA-MB-468 cultured in Leibovitz's L-15 medium.
(§3) All cultures were supplemented with 10% FCS(CSL, Australia), penicillin (100 U/ml), streptomycin ([…]), L-glutamine (2 mM) and sodium bicarbonate (1.2 g/L), and cultured at 37° C. in a humidified atmosphere of 5% CO2. All remaining cell lines were purchased from ATCC (Maryland, USA) except where noted.
as §1

MM96L (Melanoma) = test: In vitro cytotoxicity, MTT proliferation assay, MM96L; format: cell-based, human; details: Homo sapiens
Protocol: as §2, §3, §1

[2] = Oral pharmacokinetics in mice; format: in vivo, female BALB/c mice; details: 50 mg/kg
Protocol: 4,9-Dihydroxy-14,15-dimethoxy-12a-(3′,4′-dimethoxyphenyl)-3,10-dimethyl-2,11-dioxa-(1H,12H)-6b,6c,12a,16b-tetrahydronaphtho[1,2-g]chrysene (2) from Example 6.1 was prepared as homogenous suspensions in 1% CMC (m:v, water). The Cpd. 2 formulation was delivered orally by gavage to female BALB/c mice at a dosage of 50 mg/kg. Three animals were allocated to each time point (15 min, 30 min, 1 hr, 4 hr and 24 hr). At each respective time point, animals were euthanased by cervical dislocation and blood collected. Free Cpd.

NCI-H460 (Lung) = test: In vitro cytotoxicity, MTT proliferation assay, NCI-H460; format: cell-based, human; details: Homo sapiens
Protocol: as §2, §3, §1

RPMI-8226 (Leukemic) = test: In vitro cytotoxicity, MTT proliferation assay, RPMI-8226; format: cell-based; details: Homo sapiens; Leukemic RPMI-8226
Protocol: as §2, §3
as §1, with “NFFs were cultured for 5 days and RK-13s for 24 hrs in the absence and presence of the test compounds.” left out

[3] = tested on: ear swelling in mice induced by the topical application of arachidonic acid (AA); test: Murine ear inflammation induced by arachidonic acid; format: in vivo, Female BALB/c mice
Protocol: Compound 2 was examined for its ability to inhibit ear swelling in mice induced by the topical application of arachidonic acid (AA). The inflammatory response due AA, the immediate precursor of the eicosanoids, is due to formation of AA metabolites via both the cyclooxygenase (COX) and lipoxygenase (LOX) pathways (Young et al. 1984). AA induces an early (10-15 min) increase in both PGE2 and LTC4 synthesis which precedes the increase in ear thickness (Opas et al. 1985; Chang et al. 1986).
Female BALB/c mice (ARC, WA, Australia), weighing 15-21 g were injected with Compound 2 delivered in polyethylene glycol (PEG) 400:phosphate buffered saline (PBS) 1:1 intraperitoneally (i/p) at a dose of 25 mg/kg 30 min prior to the application of AA being to the ears. Mice were anaesthetised using isoflurane and baseline thickness of both ears was measured using a spring micrometer. Each mouse received a total of […] of AA in ethanol (50 mg/ml) applied to the inner and outer surfaces of each pinna (i.e. 0.5 mg AA or 2 μg PMA per ear). […]
The difference in ear swelling pre- and post-application of AA for each ear was calculated, and the average for the two ears of each mouse calculated. The difference in mean swelling of each test group compared to the group given vehicle alone was calculated using a two-tailed unpaired t test (Prism 4, GraphPad Software).

[4] = Toxicity study, i/p administration in mice; format: in vivo; details: 50 mg/kg i/p daily
Protocol: In a small study, BALB/cnu/nu mice were administered with either Compound 2 (n=2) as a solution in 6% Tween 20:PBS at 50 mg/kg or an equivalent volume of vehicle (n=2), by i/p injection. Mice were weighed and observed for signs of toxicity daily using clinical monitoring sheets. On day 9, mice were killed by cervical dislocation, and the kidney, spleen and liver of each mouse were collected for histological assessment of toxicity.

With `COc1ccc(C23COc4c(ccc(O)c4C)C2C2c4ccc(O)c(C)c4OCC2c2cc(OC)c(OC)cc23)cc1OC` (stereo not shown) [Cpd. 2, 4,9-Dihydroxy-14,15-dimethoxy-12a-(3′,4′-dimethoxyphenyl)-3,10-dimethyl-2,11-dioxa-(1H,12H)-6b,6c,12a,16b-tetrahydronaphtho[1,2-g]chrysene] the IC50 ([1]; Homo sapiens, 120 h, NFF fibroblast, cultured 5 days, MTT) was 23.6 ± 6.6 µM, the “toxicity to normal cells relative to cisplatin and dehydroequol” value ([1]; normal cells (NFF, rabbit kidney)) was “less toxic to normal cells than cisplatin, but more toxic than dehydroequol” and the “maximal contractile response to noradrenaline” value (thoracic aorta) was 2.09±0.23. It also gave an IC50 (A2780 (Ovarian)) of 10.16 ± 0.07 µM, an IC50 (MM96L (Melanoma)) of 6.8 µM and a concentration at 15 min ([2]; female, BALB/c, mouse, blood, oral gavage, Time 0.25 (15 min), read-out: Free concentration in blood) of 1.33 µM. The concentration at 30 min ([2]; female, BALB/c, mouse, blood, oral gavage, Time 0.5 (30 min), read-out: Free concentration in blood) was 4.93 µM, the concentration at 1 h ([2]; female, BALB/c, mouse, blood, oral gavage, Time 1 (1 hr), read-out: Free concentration in blood) was 6.76 µM and the concentration at 4 h ([2]; female, BALB/c, mouse, blood, oral gavage, Time 4 (4 hr), read-out: Free concentration in blood) was 6.31 µM. For the same compound, the concentration at 24 h ([2]; female, BALB/c, mouse, blood, oral gavage, Time 24 (24 hr), read-out: Free concentration in blood) was 1.15 µM, the “half-life compared to dehydroequol” value ([2]; oral) was “superior half-life at times up to 4 hours compared to dehydroequol” and the “rate of conjugation compared to dehydroequol” value ([2]; oral) was “slow rate of conjugation compared to dehydroequol”. For the same compound, the IC50 (NCI-H460 (Lung)) was 11.3 ± 4.97 µM, the IC50 (RPMI-8226 (Leukemic)) was 15.2 µM and the “Change in ear thickness (mean ± SD, ×0.01 mm)” value ([3]; 25 mg/kg i/p 30 min prior to AA, 1 hr post-AA, vehicle 14.5 ± 4.7) was 5.1 ± 1.7 ×0.01 mm. For the same compound, the “ear thickness compared with vehicle alone” value ([3]; 25 mg/kg i/p, AA-induced) was “significant reduction”, the “body weight gain vs vehicle” value ([4]; 9 days) was “no difference” and the clinical signs ([4]; 9 days) was “no abnormal clinical signs”. The “histological assessment of toxicity (kidney, spleen, liver)” value ([4]; day 9) was “no histological evidence of toxicity”.
